In paper PMC5545217 (Nature Communications, 2017):
Entries after “also recorded” stand apart in the source; their conditions may differ.

Molecular target: D216V ATP-PRT (Mycobacterium tuberculosis, UniProt P9WMN1, D216V)
Type: biochemical

Row | SMILES | Inhibition of D216V ATP-PRT | Activation of D216V ATP-PRT
1 | N[C@@H](Cc1c[nH]cn1)C(=O)O [L-His, L-histidine, reference compound] | no longer inhibited by L-His; also recorded: did not change D216 V activity | –
2 | N[C@@H](Cc1cccs1)C(=O)O [TIH, 3-(2-thienyl)-L-alanine] | – | still activated by TIH
